Measurements from US20240335404A1, “SUBSTITUTED ESTERS CONTAINING POLYOLS AND SACCHARIDES FOR TREATING HEPATOTOXICITY AND FATTY LIVER DISEASES” (SINEW PHARMA INC., priority 2015, published 2024).

Test system: Liver Injuries Induced by CCl4
Assay: Liver injuries induced by CCl4 in mice (GSP, AST/ALT, HAI)
Assay type: in vivo
Description: In the normal control, animals were administered with normal saline by intraperitoneal injection. In the control group of CCl4 induced liver injuries, animals were intraperitoneally injected with 10 ml/kg CCl4 (40% in corn oil) to induce hepatotoxicity. In the experimental group, animals were intraperitoneally injected with 10 ml/kg CCl4 (40% in corn oil) to induce hepatotoxicity, and 4 hours later, different ingredients of the present invention were administered by tube feeding. Blood was collected from the mice before administration with the ingredients of the present invention or at 24 hours after administration with the ingredients of the present invention for AST/ALT assays. Finally, animals were sacrificed at day 2 and blood were collected for AST/ALT assay and histological analysis was performed.
On the other hand, other experimental groups of mice were fed with the ingredients of the present invention for 12 weeks and the mice were subjected to GSP tests.
Liver damage is quantified by measuring plasma AST and ALT activity. AST and ALT are common indicators of hepatotoxicity and are measured by using the Synchron LXi 725 system (Beckman Instruments, U.S.).
Following scarification of the rats, histological analysis was performed. Liver samples were fixed with 10% phosphate-buffered formalin, dehydrated an embedded in paraffin, Sections were prepared in 5 μm thickness and then stained with hematoxylin and eosin and subjected to Periodic acid Schiff stain (PAS). The stained sections were observed under the optic microscope.
After the study was completed, all rats were subjected to GSP test. Rats were i.v. injected with 0.4 g/ml BW galactose solution 0.5 g/kg within 30 seconds and one blood sample was collected at 5, 10, 15, 30, 45 and 60 minutes post injection from the tail vein. Colorimetric galactose dehydrogenase is used to quantify the concentration of galactose and the test concentration ranges from 50 to 1,000 μg/ml. The within-day variation of each concentration is calculated using standard deviation and coefficient of variation (CV) and the maximum allowable coefficient of variation is 10% CV, whereas day-to-day variation is examined by comparing the slope and intercept of calibration curves. The GSP is the blood galactose concentration obtained 60 seconds after stopping the 30-second injection.
All data are represented in mean±standard deviation (SD) and the results are calculated using ANOVA to determine the significance. Statistical Package of the Social Science program (Version 13, SPSS Inc.) is used for calculations followed by post hoc test to examine the least significant difference for multiple comparisons so as to confirm the significant differences between groups and the average difference between groups was significant p<0.05.

[1] = CCl4-induced liver injuries, dose less than or equivalent to 100 mg per person

OC[C@@H](O)[C@@H](O)[C@H](O)[C@H](O)CO [Mannitol]
ALT [1]: 77 ± 22 IU/L
AST [1]: 91 ± 28 IU/L
GSP [1]: 290 ± 78 mg/L
Total HAI score [1]: 0.8 ± 0.5
effect on CCl4-induced liver injuries (mice, CCl4): liver injuries can be improved
